Experimental data published in patent US8138377B2, “Arylbicyclo[3.1.0]hexylamines and methods and compositions for their preparation and use” (DOV Pharmaceutical, Inc., priority 2007, dated 2012).

Experiments:
dopamine (DA) transport = target: T1, dopamine (DA) transport (Rattus norvegicus, UniProt P23977); assay: biochemical
T1 construct: synaptosomal preparations were made from either whole brain (5-HT), striatum (DA) or hypothalamus (NE); from tissue; host or cells: rat striatum synaptosomes
T1 sequence (P23977 whole entry): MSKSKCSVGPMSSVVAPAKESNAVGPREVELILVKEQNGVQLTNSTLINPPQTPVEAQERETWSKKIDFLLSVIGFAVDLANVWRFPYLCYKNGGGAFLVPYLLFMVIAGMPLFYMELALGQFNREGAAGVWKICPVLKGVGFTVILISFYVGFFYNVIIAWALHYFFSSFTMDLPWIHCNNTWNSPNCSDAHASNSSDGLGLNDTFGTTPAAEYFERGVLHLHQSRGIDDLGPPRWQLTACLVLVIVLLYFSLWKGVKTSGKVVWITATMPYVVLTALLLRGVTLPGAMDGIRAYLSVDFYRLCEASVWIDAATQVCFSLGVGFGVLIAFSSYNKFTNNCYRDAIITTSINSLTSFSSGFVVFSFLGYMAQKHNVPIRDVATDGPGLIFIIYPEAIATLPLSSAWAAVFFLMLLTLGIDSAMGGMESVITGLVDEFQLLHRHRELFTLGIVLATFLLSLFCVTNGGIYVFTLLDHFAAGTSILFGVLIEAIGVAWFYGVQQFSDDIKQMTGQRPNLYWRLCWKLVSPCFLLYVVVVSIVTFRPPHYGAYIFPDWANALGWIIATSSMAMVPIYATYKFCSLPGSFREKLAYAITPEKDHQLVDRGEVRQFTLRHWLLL
Procedure: (§1) The effects of arylbicyclo[3.1.0]hexylamines of the invention for inhibiting transport of norepinephrine (NE) and/or dopamine (DA) and/or serotonin (5-HT) were evaluated using preparations of synaptosomes from different regions of the rat brain according to previously-reported techniques.
(§2) Whole brains were obtained from normal rats, and synaptosomal preparations were made from either whole brain (5-HT), striatum (DA) or hypothalamus (NE) by gentle disruption in 10 volumes (w/v) of 0.32 M sucrose (0-4° C.) using a Teflon-glass homogenizer. The homogenate was then centrifuged at 1000×g for 10 min. The supernatant was retained and centrifuged at 23000 g for 20 min. The resulting pellet was gently resuspended in 200 volumes of 0.32 M sucrose (0-4° C.) using a teflon-glass homogenizer. Aliquots (250 μL) of this preparation were added to tubes, along with 0.2 μCi/mL of [^3H]5-HT, [^3H]DA, or [^3H]NE, 200 μL of selected 1-arylbicyclo[3.1.0]hexanamine test compounds (to yield final concentrations of 500 nM) and 1 mL of Krebs-Ringer bicarbonate buffer (pH 7.4). […] At the end of this period, the assay was terminated by rapid filtration over Whatman GF/C glass fiber filters. The filters were rinsed 3 times with 4 ml of Krebs-Ringer bicarbonate buffer (0-4° C.), and the radioactivity retained on the filters was measured by liquid scintillation spectrometry.

[1] = target: T2, serotonin (5-HT) transport (Rattus norvegicus, UniProt P31652); assay: biochemical
T2 construct: synaptosomal preparations were made from either whole brain (5-HT), striatum (DA) or hypothalamus (NE); from tissue; host or cells: rat whole brain synaptosomes
T2 sequence (P31652 whole entry): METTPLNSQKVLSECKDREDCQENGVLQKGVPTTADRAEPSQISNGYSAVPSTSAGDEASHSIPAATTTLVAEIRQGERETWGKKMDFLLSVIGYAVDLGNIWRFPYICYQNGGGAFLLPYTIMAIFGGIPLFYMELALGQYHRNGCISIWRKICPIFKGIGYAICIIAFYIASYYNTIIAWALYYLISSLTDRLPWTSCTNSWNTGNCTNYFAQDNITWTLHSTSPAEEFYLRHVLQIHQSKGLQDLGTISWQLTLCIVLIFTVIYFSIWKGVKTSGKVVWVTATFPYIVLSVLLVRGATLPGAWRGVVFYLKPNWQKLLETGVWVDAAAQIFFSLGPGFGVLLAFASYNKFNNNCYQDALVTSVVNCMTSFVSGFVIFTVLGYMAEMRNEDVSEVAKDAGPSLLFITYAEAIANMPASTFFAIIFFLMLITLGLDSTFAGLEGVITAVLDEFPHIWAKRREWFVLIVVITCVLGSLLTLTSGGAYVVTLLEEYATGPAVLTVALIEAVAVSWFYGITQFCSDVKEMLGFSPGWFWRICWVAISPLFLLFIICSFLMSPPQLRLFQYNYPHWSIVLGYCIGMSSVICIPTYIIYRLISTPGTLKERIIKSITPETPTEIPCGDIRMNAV
Procedure: as §1, §2

[2] = target: T3, norepinephrine (NE) transport (Rattus norvegicus, UniProt Q63380); assay: Inhibition of [3H]NE uptake in rat hypothalamus synaptosomes; format: biochemical
T3 construct: synaptosomal preparations were made from either whole brain (5-HT), striatum (DA) or hypothalamus (NE); from tissue; host or cells: rat hypothalamus synaptosomes
T3 sequence (Q63380 1-617): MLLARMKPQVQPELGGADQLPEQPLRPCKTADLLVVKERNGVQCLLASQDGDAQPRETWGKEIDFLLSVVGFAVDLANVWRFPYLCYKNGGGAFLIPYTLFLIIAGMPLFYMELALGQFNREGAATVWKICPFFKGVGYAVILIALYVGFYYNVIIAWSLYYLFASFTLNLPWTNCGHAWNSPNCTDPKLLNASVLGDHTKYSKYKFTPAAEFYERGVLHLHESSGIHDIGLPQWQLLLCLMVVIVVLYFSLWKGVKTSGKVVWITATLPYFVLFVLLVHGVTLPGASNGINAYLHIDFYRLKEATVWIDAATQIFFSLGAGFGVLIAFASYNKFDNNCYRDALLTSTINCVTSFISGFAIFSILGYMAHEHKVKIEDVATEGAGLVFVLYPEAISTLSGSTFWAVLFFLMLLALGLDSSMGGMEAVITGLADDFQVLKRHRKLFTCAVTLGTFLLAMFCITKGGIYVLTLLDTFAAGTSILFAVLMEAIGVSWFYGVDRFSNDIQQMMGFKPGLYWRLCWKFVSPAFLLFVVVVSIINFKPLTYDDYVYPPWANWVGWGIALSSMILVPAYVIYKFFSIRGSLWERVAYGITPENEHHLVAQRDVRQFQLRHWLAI
Procedure: as §1, §2

CNC1CC2CC2(c2cccc3ccccc23)C1 (stereo not drawn)
IC50 (dopamine (DA) transport): 8730 nM | inhibition at 0.5 µM (dopamine (DA) transport; read-out: Uptake Inhibition % at 500 nM DA): 23% | IC50 [1]: 76 nM | inhibition at 0.5 µM ([1]; read-out: Uptake Inhibition % at 500 nM 5-HT): 82% | IC50 [2]: 74 nM | inhibition at 0.5 µM ([2]; 500 nM, 20 min, 37° C.): 81%
